Among the data in PubChem BioAssay AID2060905 (Molecular Pharmacology Branch, DTP, NCI, 2025) are IC50 and viability, T/C values, retold here.

Several values for one entry are separate records, joined by “and”; a condition that tells them apart may be missing. Identical values can stand only once.

The assay deals with 282377-053-R-J1-PDC complex spheroid viability. Nature of the assay: Anticancer human tumor 282377-053-R-J1-PDC patient-derived colon adenocarcinoma cell line growth inhibition [RAS]. Conditions: for viability, T/C: stronger effect = lower value. The procedure, abridged: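 Agents were tested in combination matrices in half-log decrements from a top concentration at or near clinical Cmax (10 microM if undetermined). Targets were multi-cell spheroids of tumour lines plus HUVEC and MSC stromal cells.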

As a reminder, the IC50 is the concentration that gives 50% inhibition. By viability, T/C is commonly meant the result in the treated group divided by that in the control group, in per cent.
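Note: spheroids exposed to agents for seven days before readout.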
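Throughout, for viability, T/C: luminescence viability as percent of DMSO vehicle control wells.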

For the molecule `Nc1ccn(C2OC(CO)C(O)C2(F)F)c(=O)n1` (stereo unspecified) + CCn1c(-c2cccnc2C(C)OC)c2c3cc(ccc31)N1CCOC(CC(NC(=O)C(C(C)C)N(C)C(=O)C3(F)CCN(C(=O)C#CC(C)(C)N(C)C)CC3)C(=O)N3CCCC(N3)C(=O)OCC(C)(C)C2)C1, the IC50 runs as follows: (curve of first compound, second compound 0.000949 µM) greater than 1000 nM; (curve of first compound, second compound 0.003 µM) greater than 1000 nM; (curve of first compound, second compound 0.00949 µM) greater than 1000 nM; (curve of first compound, second compound 0.03 µM) greater than 1000 nM; (curve of first compound, second compound 0.0949 µM) greater than 1000 nM; (curve of first compound, second compound 0.3 µM) greater than 1000 nM. Further, the viability, T/C was 99.3% (second compound 0.000949 µM, first compound 0.00316 µM); 105% (second compound 0.000949 µM, first compound 0.01 µM); 76% (second compound 0.000949 µM, first compound 0.0316 µM); 92.6% (second compound 0.000949 µM, first compound 0.1 µM); 67.2% (second compound 0.000949 µM, first compound 0.316 µM); 57.9% (second compound 0.000949 µM, first compound 1 µM). The viability, T/C was 100% (second compound 0.003 µM, first compound 0.00316 µM); 97.9% (second compound 0.003 µM, first compound 0.01 µM); 99.2% (second compound 0.003 µM, first compound 0.0316 µM); 109% (second compound 0.003 µM, first compound 0.1 µM); 81.1% (second compound 0.003 µM, first compound 0.316 µM); 59% (second compound 0.003 µM, first compound 1 µM). The viability, T/C was 106% (second compound 0.00949 µM, first compound 0.00316 µM); 97.9% (second compound 0.00949 µM, first compound 0.01 µM); 99.3% (second compound 0.00949 µM, first compound 0.0316 µM); 96.8% (second compound 0.00949 µM, first compound 0.1 µM); 87.2% (second compound 0.00949 µM, first compound 0.316 µM); 66.1% (second compound 0.00949 µM, first compound 1 µM). Also, the viability, T/C (second compound 0.03 µM, first compound 0.00316 µM) was 104%; the viability, T/C (second compound 0.03 µM, first compound 0.01 µM) is 87.7%; the viability, T/C (second compound 0.03 µM, first compound 0.0316 µM) is 112%; the viability, T/C (second compound 0.03 µM, first compound 0.1 µM) was 104%; the viability, T/C (second compound 0.03 µM, first compound 0.316 µM) is 103%; the viability, T/C (second compound 0.03 µM, first compound 1 µM) is 74.1%. In addition, the viability, T/C reads like this: (second compound 0.0949 µM, first compound 0.00316 µM) 87%; (second compound 0.0949 µM, first compound 0.01 µM) 98.8%; (second compound 0.0949 µM, first compound 0.0316 µM) 92.1%; (second compound 0.0949 µM, first compound 0.1 µM) 74.3%; (second compound 0.0949 µM, first compound 0.316 µM) 91.1%; (second compound 0.0949 µM, first compound 1 µM) 68.5%. For the same molecule, the viability, T/C was 111% (second compound 0.3 µM, first compound 0.00316 µM); 99.9% (second compound 0.3 µM, first compound 0.01 µM); 92.8% (second compound 0.3 µM, first compound 0.0316 µM); 116% (second compound 0.3 µM, first compound 0.1 µM); 90.9% (second compound 0.3 µM, first compound 0.316 µM); 52.9% (second compound 0.3 µM, first compound 1 µM).

As to `CC1(O)CCCC1n1c(=O)c(C(F)F)cc2cnc(NC3CCN(S(C)(=O)=O)CC3)nc21` (stereo unspecified), the viability, T/C runs as follows: (compound 0.1 µM) 128% [middle of 4 runs]; (compound 1 µM) 112% (2×) and 190% and 160%; (compound 10 µM) 5.45% [middle of 4 runs]. The IC50 (curve of compound) was 6.64 µM [middle of 4 runs].
